Measured values taken from US10537558B2 (Bantam Pharmaceutical, LLC, priority 2015, dated 2020).

Tested on: BJAB cells
Test: BJAB cell proliferation (Cell Titer Glo)
Type: cell-based
Settings: Homo sapiens, read-out: EC50
How it was run: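 EC50 values come from non-linear regression of luminescence (Cell Titer Glo), expressed relative to untreated wells. BJAB cells were incubated roughly 72 h at 37 °C with serial compound dilutions carrying 0.1% final DMSO.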

For `Cc1nn(-c2nc(-c3ccc(Cl)c(Cl)c3)c(SC(C)C)s2)c(C(N)=O)c1-c1cc(C(F)(F)F)cc(C(F)(F)F)c1` [Compound 73, 4-(3,5-bis(trifluoromethyl)phenyl)-1-(4-(3,4-dichlorophenyl)-5-(isopropylthio)thiazol-2-yl)-3-methyl-1H-pyrazole-5-carboxamide], which EC50 is on record?
Its EC50 is > 40 µM.

`Cc1cc(C)nc(-c2c(C)nn(-c3nc(-c4ccc(Cl)c(Cl)c4)c(SC(C)C)s3)c2C(=O)O)n1` [Compound 74, 1-(4-(3,4-dichlorophenyl)-5-(isopropylthio)thiazol-2-yl)-4-(4,6-dimethylpyrimidin-2-yl)-3-methyl-1H-pyrazole-5-carboxylic acid] was tested. Which EC50 did it give?
Its EC50 is 25 to 50 µM.

For `Cc1nn(-c2nc(-c3ccc(Cl)c(Cl)c3)c(SC(C)C)s2)c(C(=O)NCc2ccccn2)c1-c1cc(C(F)(F)F)cc(C(F)(F)F)c1` [Compound 75, 4-(3,5-bis(trifluoromethyl)phenyl)-1-(4-(3,4-dichlorophenyl)-5-(isopropylthio)thiazol-2-yl)-3-methyl-N-(pyridin-2-ylmethyl)-1H-pyrazole-5-carboxamide], which EC50 is on record?
Its EC50 is > 40 µM.

Which EC50 does the source give for `Cc1nn(-c2nc(-c3ccc(Cl)c(Cl)c3)c(SC(C)C)s2)c(C(=O)N(C)CCO)c1-c1cc(C(F)(F)F)cc(C(F)(F)F)c1` [Compound 76, 4-(3,5-bis(trifluoromethyl)phenyl)-1-(4-(3,4-dichlorophenyl)-5-(isopropylthio)thiazol-2-yl)-N-(2-hydroxyethyl)-N,3-dimethyl-1H-pyrazole-5-carboxamide] here?
Its EC50 is > 40 µM.

With `Cc1nn(-c2nc(-c3ccc(Cl)c(Cl)c3)c(SC(C)C)s2)c(C(=O)N(C)c2nnc(C(F)(F)F)s2)c1-c1cc(C(F)(F)F)cc(C(F)(F)F)c1` [Compound 77, 4-(3,5-bis(trifluoromethyl)phenyl)-1-(4-(3,4-dichlorophenyl)-5-(isopropylthio)thiazol-2-yl)-N,3-dimethyl-N-(5-(trifluoromethyl)-1,3,4-thiadiazol-2-yl)-1H-pyrazole-5-carboxamide] as the compound, how does the EC50 read?
The EC50 was > 40 µM.

With `CCN(CC)C1CCN(C(=O)c2c(-c3cc(C(F)(F)F)cc(C(F)(F)F)c3)c(C)nn2-c2nc(-c3ccc(Cl)c(Cl)c3)c(SC(C)C)s2)C1` (stereo not shown) [Compound 78, (4-(3,5-bis(trifluoromethyl)phenyl)-1-(4-(3,4-dichlorophenyl)-5-(isopropylthio)thiazol-2-yl)-3-methyl-1H-pyrazol-5-yl)(3-(diethylamino)pyrrolidin-1-yl)methanone] as the compound, how does the EC50 read?
The EC50 was > 40 µM.

How did the EC50 turn out when `Cc1nn(-c2nc(-c3ccc(Cl)c(Cl)c3)c(SC(C)C)s2)c(C(=O)O)c1-c1cnccn1` [Compound 79, 1-(4-(3,4-dichlorophenyl)-5-(isopropylthio)thiazol-2-yl)-3-methyl-4-(pyrazin-2-yl)-1H-pyrazole-5-carboxylic Acid] was run?
Its EC50 is 10 to 25 µM.

With `Cc1cc(C#N)cc(-c2c(C)nn(-c3nc(-c4ccc(Cl)c(Cl)c4)c(SC(C)C)s3)c2C(=O)O)c1` [Compound 80, 4-(3-cyano-5-methylphenyl)-1-(4-(3,4-dichlorophenyl)-5-(isopropylthio)thiazol-2-yl)-3-methyl-1H-pyrazole-5-carboxylic Acid] as the compound, how does the EC50 read?
The EC50 was 1 to 5 µM.

How did the EC50 turn out when `Cc1nn(-c2nc(-c3ccc(Cl)c(Cl)c3)c(SC(C)C)s2)c(C(=O)Nc2nnn[nH]2)c1-c1cc(C(F)(F)F)cc(C(F)(F)F)c1` [Compound 81, 4-(3,5-bis(trifluoromethyl)phenyl)-1-(4-(3,4-dichlorophenyl)-5-(isopropylthio)thiazol-2-yl)-3-methyl-N-(1H-tetrazol-5-yl)-1H-pyrazole-5-carboxamide] was run?
The EC50 was > 40 µM.

For `Cc1nnc(-c2c(C)nn(-c3nc(-c4ccc(Cl)c(Cl)c4)c(SC(C)C)s3)c2C(=O)O)s1` [Compound 82, 1-(4-(3,4-dichlorophenyl)-5-(isopropylthio)thiazol-2-yl)-3-methyl-4-(5-methyl-1,3,4-thiadiazol-2-yl)-1H-pyrazole-5-carboxylic acid], which EC50 is on record?
Its EC50 is > 40 µM.

With `COc1cc(C#N)cc(-c2c(C)nn(-c3nc(-c4ccc(Cl)c(Cl)c4)c(SC(C)C)s3)c2C(=O)O)c1` [Compound 83, 4-(3-cyano-5-methoxyphenyl)-1-(4-(3,4-dichlorophenyl)-5-(isopropylthio)thiazol-2-yl)-3-methyl-1H-pyrazole-5-carboxylic acid] as the compound, how does the EC50 read?
The EC50 was 5 to 10 µM.

How did the EC50 turn out when `Cc1nn(-c2nc(-c3ccc(Cl)c(Cl)c3)c(SC(C)C)s2)c(C(=O)O)c1-c1cc(C#N)cc(C(F)(F)F)c1` [Compound 84, 4-(3-cyano-5-(trifluoromethyl)phenyl)-1-(4-(3,4-dichlorophenyl)-5-(isopropylthio)thiazol-2-yl)-3-methyl-1H-pyrazole-5-carboxylic Acid] was run?
The EC50 was 1 to 5 µM.

With `COCc1cccc(-c2c(C)nn(-c3nc(-c4ccc(Cl)c(Cl)c4)c(SC(C)C)s3)c2C(=O)O)c1` [Compound 85, 1-(4-(3,4-dichlorophenyl)-5-(isopropylthio)thiazol-2-yl)-4-(3-(methoxymethyl)phenyl)-3-methyl-1H-pyrazole-5-carboxylic acid] as the compound, how does the EC50 read?
Its EC50 is 5 to 10 µM.

How did the EC50 turn out when `Cc1nn(-c2nc(-c3ccc(Cl)c(Cl)c3)c(SC(C)C)s2)c(C(=O)O)c1-c1c(Cc2ccccc2)noc1C` [Compound 86, 4-(3-benzyl-5-methylisoxazol-4-yl)-1-(4-(3,4-dichlorophenyl)-5-(isopropylthio)thiazol-2-yl)-3-methyl-1H-pyrazole-5-carboxylic Acid] was run?
The EC50 was 1 to 5 µM.

Which EC50 does the source give for `Cc1nn(-c2nc(-c3ccc(Cl)c(Cl)c3)c(SC(C)C)s2)c(C(=O)O)c1-c1cccc(CN(C)C)c1` [Compound 87, 1-(4-(3,4-dichlorophenyl)-5-(isopropylthio)thiazol-2-yl)-4-(3-((dimethylamino)methyl)phenyl)-3-methyl-1H-pyrazole-5-carboxylic acid] here?
The EC50 was > 25 µM.

How did the EC50 turn out when `Cc1nn(-c2nc(-c3ccc(Cl)c(Cl)c3)c(SC(C)C)s2)c(CO)c1-c1ccccc1` [Compound 88, (1-(4-(3,4-dichlorophenyl)-5-(isopropylthio)thiazol-2-yl)-3-methyl-4-phenyl-1H-pyrazol-5-yl)MeOH] was run?
The EC50 was > 25 µM.

`Cc1nn(-c2nc(-c3ccc(Cl)c(Cl)c3)c(SC(C)C)s2)c(C(=O)O)c1-c1ccc2c(c1)OCO2` [Compound 89, 4-(benzo[d][1,3]dioxol-5-yl)-1-(4-(3,4-dichlorophenyl)-5-(isopropylthio)thiazol-2-yl)-3-methyl-1H-pyrazole-5-carboxylic Acid] was tested. Which EC50 did it give?
Its EC50 is 5 to 10 µM.

How did the EC50 turn out when `COc1ccnc(-c2c(C)nn(-c3nc(-c4ccc(Cl)c(Cl)c4)c(SC(C)C)s3)c2C(=O)O)n1` [Compound 90, 1-(4-(3,4-dichlorophenyl)-5-(isopropylthio)thiazol-2-yl)-4-(4-methoxypyrimidin-2-yl)-3-methyl-1H-pyrazole-5-carboxylic acid] was run?
The EC50 was > 25 µM.

For `Cc1nn(-c2nc(-c3ccc(Cl)c(Cl)c3)c(SC(C)C)s2)c(C(=O)O)c1-c1cnsc1` [Compound 91, 1-(4-(3,4-dichlorophenyl)-5-(isopropylthio)thiazol-2-yl)-4-(isothiazol-4-yl)-3-methyl-1H-pyrazole-5-carboxylic acid], which EC50 is on record?
The EC50 was 5 to 10 µM.

How did the EC50 turn out when `Cc1cc(-c2c(C)nn(-c3nc(-c4ccc(Cl)c(Cl)c4)c(SC(C)C)s3)c2C(=O)O)sn1` [Compound 92, 1-(4-(3,4-dichlorophenyl)-5-(isopropylthio)thiazol-2-yl)-3-methyl-4-(3-methylisothiazol-5-yl)-1H-pyrazole-5-carboxylic Acid] was run?
The EC50 was 1 to 5 µM.

For `Cc1nn(-c2nc(-c3ccc(Cl)c(Cl)c3)c(SC(C)C)s2)c(C(=O)O)c1-c1ccn(C)c(=O)c1` [Compound 93, 1-(4-(3,4-dichlorophenyl)-5-(isopropylthio)thiazol-2-yl)-3-methyl-4-(1-methyl-2-oxo-1,2-dihydropyridin-4-yl)-1H-pyrazole-5-carboxylic acid], which EC50 is on record?
The EC50 was > 25 µM.

How did the EC50 turn out when `Cc1nn(-c2nc(-c3ccc(Cl)c(Cl)c3)c(SC(C)C)s2)c(C(=O)O)c1-c1cc(C)c(=O)n(C)c1` [Compound 94, 1-(4-(3,4-dichlorophenyl)-5-(isopropylthio)thiazol-2-yl)-4-(1,5-dimethyl-6-oxo-1,6-dihydropyridin-3-yl)-3-methyl-1H-pyrazole-5-carboxylic Acid] was run?
The EC50 was > 25 µM.

How did the EC50 turn out when `Cc1cc(F)cc(-c2c(C)nn(-c3nc(-c4ccc(Cl)c(Cl)c4)c(SC(C)C)s3)c2C(=O)O)c1` [Compound 95, 1-(4-(3,4-dichlorophenyl)-5-(isopropylthio)thiazol-2-yl)-4-(3-fluoro-5-methylphenyl)-3-methyl-1H-pyrazole-5-carboxylic Acid] was run?
The EC50 was 1 to 5 µM.

For `Cc1cc(O)cc(-c2c(C)nn(-c3nc(-c4ccc(Cl)c(Cl)c4)c(SC(C)C)s3)c2C(=O)O)c1` [Compound 96, 1-(4-(3,4-dichlorophenyl)-5-(isopropylthio)thiazol-2-yl)-4-(3-hydroxy-5-methylphenyl)-3-methyl-1H-pyrazole-5-carboxylic acid], which EC50 is on record?
The EC50 was > 25 µM.

For `Cc1cc(OC(C)C)cc(-c2c(C)nn(-c3nc(-c4ccc(Cl)c(Cl)c4)c(SC(C)C)s3)c2C(=O)O)c1` [Compound 97, 1-(4-(3,4-dichlorophenyl)-5-(isopropylthio)thiazol-2-yl)-4-(3-isopropoxy-5-methylphenyl)-3-methyl-1H-pyrazole-5-carboxylic Acid], which EC50 is on record?
Its EC50 is 1 to 5 µM.

Which EC50 does the source give for `Cc1cc(OC2COC2)cc(-c2c(C)nn(-c3nc(-c4ccc(Cl)c(Cl)c4)c(SC(C)C)s3)c2C(=O)O)c1` [Compound 98, 1-(4-(3,4-dichlorophenyl)-5-(isopropylthio)thiazol-2-yl)-3-methyl-4-(3-methyl-5-(oxetan-3-yloxy)phenyl)-1H-pyrazole-5-carboxylic Acid] here?
Its EC50 is 1 to 5 µM.

With `Cc1cc(-c2c(C)nn(-c3nc(-c4ccc(Cl)c(Cl)c4)c(SC(C)C)s3)c2C(=O)O)cc(N(C)C)c1` [Compound 99, 1-(4-(3,4-dichlorophenyl)-5-(isopropylthio)thiazol-2-yl)-4-(3-(dimethylamino)-5-methylphenyl)-3-methyl-1H-pyrazole-5-carboxylic acid] as the compound, how does the EC50 read?
The EC50 was 5 to 10 µM.

How did the EC50 turn out when `Cc1cc(-c2c(C)nn(-c3nc(-c4ccc(Cl)c(Cl)c4)c(SC(C)C)s3)c2C(=O)O)cc(-n2ccnc2)c1` [Compound 100, 4-(3-(1H-imidazol-1-yl)-5-methylphenyl)-1-(4-(3,4-dichlorophenyl)-5-(isopropylthio)thiazol-2-yl)-3-methyl-1H-pyrazole-5-carboxylic Acid] was run?
Its EC50 is 1 to 5 µM.
